Where a SMILES comes first, the peptide text is derived from it.
How the values were obtained:
Assay in all cases: microbe, parasite or virus in culture
K. pneumoniae M6 = type: cell-based, Klebsiella pneumoniae; conditions: K. pneumoniae M6 (S)
Outline: (§1)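 Peptides 128→2 μg/mL, 2-fold series; inoculum ~5 × 10^5 CFU/mL from overnight culture (OD600 0.01, mixed 1:1). MHB non-cation-adjusted for bacteria, RPMI 1640 + 2% glucose for fungi. 37 °C, 20 h, OD600. MIC50/MIC90 at 50%/90% inhibition; n ≥ 3.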

K. pneumoniae NCTC 13368 = type: cell-based, Klebsiella pneumoniae; conditions: K. pneumoniae NCTC 13368 (R)
Outline: as §1

C. auris TDG 1912 = type: cell-based, Candida auris; conditions: C. auris TDG 1912
Outline: as §1

P. aeruginosa NCTC 13437 = type: cell-based, Pseudomonas aeruginosa; conditions: P. aeruginosa NCTC 13437 (R)
Outline: as §1

A. baumannii ATCC 17978 = type: cell-based, Acinetobacter baumannii; conditions: A. baumannii ATCC 17978 (S)
Outline: as §1

A. baumannii AYE = type: cell-based, Acinetobacter baumannii; conditions: A. baumannii AYE (R)
Outline: as §1

E. coli NCTC 12923 = type: cell-based, Escherichia coli; conditions: E. coli NCTC 12923 (S)
Outline: as §1

E. coli LEC001 = type: cell-based, Escherichia coli; conditions: E. coli LEC001 (R)
Outline: as §1

[1] = test system: C. parapsilosis NCPF 3209; type: cell-based; conditions: C. parapsilosis NCPF 3209
Outline: as §1

C. albicans NCPF 3281 = type: cell-based; conditions: C. albicans NCPF 3281
Outline: as §1

C. tropicalis NCPF 8760 = type: cell-based; conditions: C. tropicalis NCPF 8760
Outline: as §1

C. glabrata NCPF 8018 = type: cell-based; conditions: C. glabrata NCPF 8018
Outline: as §1

C. krusei NCPF 3876 = type: cell-based; conditions: C. krusei NCPF 3876
Outline: as §1

[2] = test system: S. aureus (MRSA) NCTC 13616; type: cell-based, Staphylococcus aureus; conditions: S. aureus (MRSA) NCTC 13616 (R)
Outline: as §1

S. aureus (MRSA) 1199B = type: cell-based, Staphylococcus aureus; conditions: S. aureus (MRSA) 1199B (R)
Outline: as §1

S. aureus (MRSA) USA300 = type: cell-based, Staphylococcus aureus; conditions: S. aureus (MRSA) USA300 (R)
Outline: as §1

[3] = MHB, 37 °C, 20 h, OD600, min. three biological repeats
[4] = 50% growth inhibition, RPMI 1640 + 2% glucose, 37 °C, 20 h, OD600
[5] = 90% growth inhibition, RPMI 1640 + 2% glucose, 37 °C, 20 h, OD600
[6] = MHB, ~5×10^5 CFU/mL, 37 °C, 20 h, OD600, min. three biological repeats
[7] = 50% growth inhibition, RPMI 1640 + 2% glucose, 37 °C, 20 h
[8] = 90% growth inhibition, RPMI 1640 + 2% glucose, 37 °C, 20 h

## CC[C@H](C)[C@H](NC(=O)[C@H](CCCCN)NC(=O)[C@H](CC(C)C)NC(=O)[C@H](C)NC(=O)[C@H](C)NC(=O)[C@H](CCCCN)NC(=O)[C@H](CC(C)C)NC(=O)[C@H](C)NC(=O)[C@@H](N)CCCCN)C(=O)NCC(N)=O [CPF-P3-10a] (H-KALKAALKIG-NH2)
K. pneumoniae M6; [3]
  Modal MIC: > 128 µg/mL
K. pneumoniae M6; shown in µM
  Modal MIC: > 122 µM
K. pneumoniae NCTC 13368; [3]
  Modal MIC: > 128 µg/mL
K. pneumoniae NCTC 13368; shown in µM
  Modal MIC: > 122 µM
C. auris TDG 1912; [4]
  Modal MIC50: > 128 µg/mL
C. auris TDG 1912; [5]
  Modal MIC90: > 128 µg/mL
C. auris TDG 1912; shown in µM
  Modal MIC50: > 122 µM
  Modal MIC90: > 122 µM
P. aeruginosa NCTC 13437; [3]
  Modal MIC: > 128 µg/mL
P. aeruginosa NCTC 13437; shown in µM
  Modal MIC: > 122 µM
A. baumannii ATCC 17978; [3]
  Modal MIC: > 128 µg/mL
A. baumannii ATCC 17978; shown in µM
  Modal MIC: > 122 µM
A. baumannii AYE; [3]
  Modal MIC: > 128 µg/mL
A. baumannii AYE; shown in µM
  Modal MIC: > 122 µM
E. coli NCTC 12923; [6]
  Modal MIC: > 128 µg/mL
E. coli NCTC 12923; shown in µM
  Modal MIC: > 122 µM
E. coli LEC001; [3]
  Modal MIC: > 128 µg/mL
E. coli LEC001; shown in µM
  Modal MIC: > 122 µM
[1]; [7]
  Modal MIC50: > 128 µg/mL
[1]; [8]
  Modal MIC90: > 128 µg/mL
[1]; shown in µM
  Modal MIC50: > 122 µM
  Modal MIC90: > 122 µM
C. albicans NCPF 3281; [7]
  Modal MIC50: > 128 µg/mL
C. albicans NCPF 3281; [8]
  Modal MIC90: > 128 µg/mL
C. albicans NCPF 3281; shown in µM
  Modal MIC50: > 122 µM
  Modal MIC90: > 122 µM
C. tropicalis NCPF 8760; [7]
  Modal MIC50: > 128 µg/mL
C. tropicalis NCPF 8760; [8]
  Modal MIC90: > 128 µg/mL
C. tropicalis NCPF 8760; shown in µM
  Modal MIC50: > 122 µM
  Modal MIC90: > 122 µM
C. glabrata NCPF 8018; [7]
  Modal MIC50: > 128 µg/mL
C. glabrata NCPF 8018; [8]
  Modal MIC90: > 128 µg/mL
C. glabrata NCPF 8018; shown in µM
  Modal MIC50: > 122 µM
  Modal MIC90: > 122 µM
C. krusei NCPF 3876; [7]
  Modal MIC50: > 128 µg/mL
C. krusei NCPF 3876; [8]
  Modal MIC90: > 128 µg/mL
C. krusei NCPF 3876; shown in µM
  Modal MIC50: > 122 µM
  Modal MIC90: > 122 µM
[2]; [3]
  Modal MIC: > 128 µg/mL
[2]; shown in µM
  Modal MIC: > 122 µM
S. aureus (MRSA) 1199B; [3]
  Modal MIC: > 128 µg/mL
S. aureus (MRSA) 1199B; shown in µM
  Modal MIC: > 122 µM
S. aureus (MRSA) USA300; [3]
  Modal MIC: > 128 µg/mL
S. aureus (MRSA) USA300; shown in µM
  Modal MIC: > 122 µM

## CC[C@H](C)[C@H](NC(=O)[C@H](CCCCN)NC(=O)[C@H](CC(C)C)NC(=O)[C@H](C)NC(=O)[C@H](C)NC(=O)[C@H](CCCCN)NC(=O)[C@H](CC(C)C)NC(=O)[C@H](C)NC(=O)[C@@H](N)CCCCN)C(=O)NCC(=O)N[C@@H](C)C(=O)N[C@@H](CC(N)=O)C(N)=O [CPF-P3-12a] (H-KALKAALKIGAN-NH2)
K. pneumoniae M6; [3]
  Modal MIC: > 128 µg/mL
K. pneumoniae M6; shown in µM
  Modal MIC: > 103.8 µM
K. pneumoniae NCTC 13368; [3]
  Modal MIC: > 128 µg/mL
K. pneumoniae NCTC 13368; shown in µM
  Modal MIC: > 103.8 µM
C. auris TDG 1912; [4]
  Modal MIC50: > 128 µg/mL
C. auris TDG 1912; [5]
  Modal MIC90: > 128 µg/mL
C. auris TDG 1912; shown in µM
  Modal MIC50: > 103.8 µM
  Modal MIC90: > 103.8 µM
P. aeruginosa NCTC 13437; [3]
  Modal MIC: > 128 µg/mL
P. aeruginosa NCTC 13437; shown in µM
  Modal MIC: > 103.8 µM
A. baumannii ATCC 17978; [3]
  Modal MIC: > 128 µg/mL
A. baumannii ATCC 17978; shown in µM
  Modal MIC: > 103.8 µM
A. baumannii AYE; [3]
  Modal MIC: > 128 µg/mL
A. baumannii AYE; shown in µM
  Modal MIC: > 103.8 µM
E. coli NCTC 12923; [6]
  Modal MIC: > 128 µg/mL
E. coli NCTC 12923; shown in µM
  Modal MIC: > 103.8 µM
E. coli LEC001; [3]
  Modal MIC: > 128 µg/mL
E. coli LEC001; shown in µM
  Modal MIC: > 103.8 µM
[1]; [7]
  Modal MIC50: > 128 µg/mL
[1]; [8]
  Modal MIC90: > 128 µg/mL
[1]; shown in µM
  Modal MIC50: > 103.8 µM
  Modal MIC90: > 103.8 µM
C. albicans NCPF 3281; [7]
  Modal MIC50: > 128 µg/mL
C. albicans NCPF 3281; [8]
  Modal MIC90: > 128 µg/mL
C. albicans NCPF 3281; shown in µM
  Modal MIC50: > 103.8 µM
  Modal MIC90: > 103.8 µM
C. tropicalis NCPF 8760; [7]
  Modal MIC50: > 128 µg/mL
C. tropicalis NCPF 8760; [8]
  Modal MIC90: > 128 µg/mL
C. tropicalis NCPF 8760; shown in µM
  Modal MIC50: > 103.8 µM
  Modal MIC90: > 103.8 µM
C. glabrata NCPF 8018; [7]
  Modal MIC50: > 128 µg/mL
C. glabrata NCPF 8018; [8]
  Modal MIC90: > 128 µg/mL
C. glabrata NCPF 8018; shown in µM
  Modal MIC50: > 103.8 µM
  Modal MIC90: > 103.8 µM
C. krusei NCPF 3876; [7]
  Modal MIC50: > 128 µg/mL
C. krusei NCPF 3876; [8]
  Modal MIC90: > 128 µg/mL
C. krusei NCPF 3876; shown in µM
  Modal MIC50: > 103.8 µM
  Modal MIC90: > 103.8 µM
[2]; [3]
  Modal MIC: > 128 µg/mL
[2]; shown in µM
  Modal MIC: > 103.8 µM
S. aureus (MRSA) 1199B; [3]
  Modal MIC: > 128 µg/mL
S. aureus (MRSA) 1199B; shown in µM
  Modal MIC: > 103.8 µM
S. aureus (MRSA) USA300; [3]
  Modal MIC: > 128 µg/mL
S. aureus (MRSA) USA300; shown in µM
  Modal MIC: > 103.8 µM

From article PMC11191095, “QSAR Reveals Decreased Lipophilicity of Polar Residues Determines the Selectivity of Antimicrobial Peptide Activity” (ACS Omega, 2024)
